In PubChem BioAssay (NCI):
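Growth conditions: 96-well plates. Treatment: test compound, 48 hours, 5 concentrations. Analysis: linear interpolation between bracketing concentrations; unreached endpoints set to highest concentration. GI50 is the concentration that inhibits growth by half. TGI: concentration producing complete growth inhibition.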

Tests used:
Assay in all cases: growth of human tumour cells (NCI), 48 h
BT-549 breast = test system: BT-549 breast
HL-60(TB) leukemia = test system: HL-60(TB) leukemia
HOP-92 NSCLC = test system: HOP-92 NSCLC
IGROV1 ovarian = test system: IGROV1 ovarian
NCI-H226 lung = test system: NCI-H226 lung
RPMI-8226 leukemia = test system: RPMI-8226 leukemia
RXF 393 renal = test system: RXF 393 renal
SR leukemia = test system: SR leukemia
TK-10 renal = test system: TK-10 renal
DMS 114 small cell lung = test system: DMS 114 small cell lung
KM20L2 colon = test system: KM20L2 colon

Row | SMILES | TGI (BT-549 breast) | TGI (HL-60(TB) leukemia) | TGI (HOP-92 NSCLC) | TGI (IGROV1 ovarian) | TGI (NCI-H226 lung) | TGI (RPMI-8226 leukemia) | TGI (RXF 393 renal) | TGI (SR leukemia) | TGI (TK-10 renal) | TGI (DMS 114 small cell lung) | TGI (KM20L2 colon) | GI50 (BT-549 breast) | GI50 (HL-60(TB) leukemia) | GI50 (HOP-92 NSCLC) | GI50 (IGROV1 ovarian) | GI50 (NCI-H226 lung) | GI50 (RXF 393 renal) | GI50 (SR leukemia) | GI50 (TK-10 renal)
1 | O=c1cc(O)c2ccccc2o1 | > 100 µM | > 100 µM | > 100 µM | > 100 µM | > 100 µM | > 100 µM | > 100 µM | > 100 µM | > 100 µM | – | – | – | – | – | – | – | – | – | –
2 | CCOC(=O)NC | > 100 µM | > 100 µM | > 100 µM | > 100 µM | – | > 100 µM | > 100 µM | > 100 µM | > 100 µM | – | – | – | – | – | – | – | – | – | –
3 | CC1(O)CC23CC1CCC2(C)C12CCCC(C)(C(=O)O1)C2CC3O (stereo not given) | > 100 µM | – | > 100 µM | > 100 µM | > 100 µM | – | – | > 100 µM | > 100 µM | – | – | – | – | – | – | – | – | – | –
4 | COc1cc(O)c2c(c1)C(=O)c1cc(C)cc(O)c1C2=O | – | > 100 µM | – | > 100 µM | > 100 µM | > 100 µM | – | > 100 µM | – | > 100 µM | > 100 µM | – | – | – | – | – | – | – | –
5 | O=C1c2ccccc2C(=O)c2c1ccc(C(=O)O)c2-c1ccc2ccccc2c1 | 68.3 µM | 61.2 µM | – | 68.3 µM | 79.6 µM | 83.8 µM | – | 51.6 µM | > 100 µM | – | – | – | – | – | – | – | – | – | –
6 | Cc1cc(=O)oc2c1cc(OCC(=O)OCCN1CCCCC1)c1occ(C)c12 | – | > 100 µM | > 100 µM | – | > 100 µM | > 100 µM | > 100 µM | – | > 100 µM | > 100 µM | > 100 µM | – | – | – | – | – | – | – | –
7 | Nc1nnc(N)n1NC(=O)C(=O)Nc1ccc([N+](=O)[O-])cc1 | – | > 100 µM | > 100 µM | > 100 µM | > 100 µM | > 100 µM | > 100 µM | > 100 µM | > 100 µM | > 100 µM | > 100 µM | – | – | – | – | – | – | – | –
8 | COc1cc(C)c2c(=O)c3c(oc2c1)C(=O)c1c(O)c(OC)cc(O)c1C3=O | – | 2.57 µM | 1.26 µM | 4.29 µM | 0.524 µM | 4.48 µM | 2.71 µM | – | – | 1.72 µM | 19.9 µM | – | – | – | – | – | – | – | –
9 | Fc1ccc(-c2nnc3sc(COc4ccccc4Cl)nn23)cc1Cl | 64.4 µM | > 100 µM | > 100 µM | 62.8 µM | 57.1 µM | – | 69.2 µM | 76.4 µM | > 100 µM | – | – | 22.9 µM | 30.4 µM | 30.4 µM | 17.7 µM | 22.8 µM | 38.1 µM | 23.3 µM | > 100 µM
10 | c1ccc2sc(SCN(C3CCCCC3)C3CCCCC3)nc2c1 | > 100 µM | – | > 100 µM | > 100 µM | > 100 µM | – | > 100 µM | > 100 µM | > 100 µM | – | – | – | – | – | – | – | – | – | –
11 | O=C(O)C1=NNC(C(=O)O)=NN1 | – | > 100 µM | > 100 µM | > 100 µM | > 100 µM | > 100 µM | > 100 µM | – | > 100 µM | – | > 100 µM | – | – | – | – | – | – | – | –
12 | NC(=O)Nc1cc(O)ccc1N=Nc1ccc(S(=O)(=O)Nc2ccccn2)cc1 | – | > 100 µM | > 100 µM | > 100 µM | – | > 100 µM | – | – | > 100 µM | > 100 µM | > 100 µM | – | – | – | – | – | – | – | –
13 | COc1c(Cl)cc(S(=O)O)cc1Cl | – | > 100 µM | – | – | – | – | > 100 µM | – | > 100 µM | > 100 µM | – | – | – | – | – | – | – | – | –
